From ChEMBL document CHEMBL2073872, “Rat multispecific organic anion transporter 1 (rOAT1) transports zidovudine, acyclovir, and other antiviral nucleoside analogs” (J Pharmacol Exp Ther, 2000)

B1: Solute carrier family 22 member 6 (Rattus norvegicus) (protein)
chain: MAFNDLLKQVGGVGRFQLIQVTMVVAPLLLMASHNTLQNFTAAIPPHHCRPPANANLSKDGGLEAWLPLDKQGQPESCLRFTSPQWGPPFYNGTEANGTRVTEPCIDGWVYDNSTFPSTIVTEWNLVCSHRAFRQLAQSLYMVGVLLGAMVFGYLADRLGRRKVLILNYLQTAVSGTCAAYAPNYTVYCVFRLLSGMSLASIAINCMTLNVEWMPIHTRAYVGTLIGYVYSLGQFLLAGIAYAVPHWRHLQLVVSVPFFIAFIYSWFFIESARWYSSSGRLDLTLRALQRVARINGKQEEGAKLSIEVLRTSLQKELTLSKGQASAMELLRCPTLRHLFLCLSMLWFATSFAYYGLVMDLQGFGVSMYLIQVIFGAVDLPAKFVCFLVINSMGRRPAQMASLLLAGICILVNGIIPKSHTIIRTSLAVLGKGCLASSFNCIFLYTGELYPTVIRQTGLGMGSTMARVGSIVSPLVSMTAEFYPSMPLFIFGAVPVVASAVTALLPETLGQPLPDTVQDLKSRSRGKQNQQQQEQQKQMMPLQASTQEKNGL

How the values were obtained:
[1] = target: T1, Solute carrier family 22 member 6 (Rattus norvegicus, UniProt O35956); assay: TP_TRANSPORTER: inhibition of PAH uptake (PAH: 2 uM, ACV: 1000 uM) in Xenopus laevis oocytes; assay type: functional, cell-based; settings: oocyte
T1 sequence (O35956 whole entry): B1 chain

[2] = target: T1, Solute carrier family 22 member 6; assay: (§1) TP_TRANSPORTER: uptake in Xenopus laevis oocytes; assay type: functional, cell-based, Oocyte; settings: for Activity: oocyte
[3] = target: T1, Solute carrier family 22 member 6; assay: TP_TRANSPORTER: inhibition of PAH uptake (PAH: 2 uM, Foscarnet: 1000 uM) in Xenopus laevis oocytes; assay type: functional, cell-based; settings: oocyte
[4] = target: T1, Solute carrier family 22 member 6; assay: TP_TRANSPORTER: inhibition of PAH uptake (PAH: 2 uM, Trifluridine: 1000 uM) in Xenopus laevis oocytes; assay type: functional, cell-based; settings: oocyte
[5] = substrate: Nc1nc2c(ncn2COCCO)c(=O)[nH]1; assay: as §1; assay type: functional, cell-based, Oocyte

| Molecule | Activity [2] | also measured |
| --- | --- | --- |
| Nc1nc2c(ncn2COCCO)c(=O)[nH]1 [ACYCLOVIR] | – | Activity [1]: inhibitor [(at a rough estimate) 50 % of control] |
| O=c1[nH]cnc2c1ncn2[C@H]1CC[C@@H](CO)O1 [DIDANOSINE] | substrate [+] | – |
| O=C(O)P(=O)(O)O [FOSCARNET] | is not a substrate [-] | Activity [3]: is not an inhibitor [-] |
| Nc1ccn([C@@H]2CS[C@H](CO)O2)c(=O)n1 [LAMIVUDINE] | substrate [+] | – |
| Cc1cn([C@H]2C=C[C@@H](CO)O2)c(=O)[nH]c1=O [STAVUDINE] | substrate [+] | – |
| O=c1[nH]c(=O)n([C@H]2C[C@H](O)[C@@H](CO)O2)cc1C(F)(F)F [TRIFLURIDINE] | substrate [+] | Activity [4]: inhibitor [(at a rough estimate) 50 % of control] |
| Nc1ccn([C@H]2CC[C@@H](CO)O2)c(=O)n1 [ZALCITABINE] | substrate [+] | – |
| Cc1cn([C@H]2C[C@H](N=[N+]=[N-])[C@@H](CO)O2)c(=O)[nH]c1=O [ZIDOVUDINE] | – | Km ([2]; Xenopus laevis oocytes): 68 µM |
| B1 | – | Km [5]: 242 µM |
